From US20180243325A1, “METHOD FOR INHIBITING ABSORPTION OF AND/OR PROMOTING EXCRETION OF LIPIDS USING D-PSICOSE” (CJ CHEILJEDANG CORPORATION, priority 2015, published 2018)

Experiments:
Type in all cases: in vivo, C57BL/6J mice
[1] = test system: high-fat diet-induced obese mice; experiment: Plasma leptin, resistin, adiponectin levels and L:A ratio; settings: FIG. 3, HFD+5% w/w in diet, 16 weeks
Description: (§1) First, 4-week-old male C57BL/6J mice (60 total) were purchased from Jackson Laboratory. The animals were acclimated to the vivarium in a thermo-hygrostat (20-23° C., 45-65%) under a 12 h light/dark cycle and fed a pelletized commercial non-purified diet for 1 week after arrival. The mice were then randomly divided into 6 groups (n=10) and fed the respective experimental diets for 16 weeks: normal diet group (ND, American Institute of Nutrition (AIN)-76 semi-synthetic diet), high-fat diet group (HFD, 20% fat+1% cholesterol based on AIN-76 diet), PSI group (HFD+5% D-psicose, w/w, Sigma Chemical Company), ERY group (HFD+5% erythritol, w/w, Sigma Chemical Company), GLU group (HFD+5% D-glucose, w/w, Sigma Chemical Company), and FRU group (HFD+5% D-fructose, w/w, Sigma Chemical Company). All high-fat diet-fed groups were allowed to ingest the same calories by pair feeding based on the PSI group. The mice had ad libitum access to distilled water during the experimental period. Their feed intakes and body weights were measured daily and biweekly, respectively. The organ weights and the adipose tissue weights of the mice were measured after sacrificing the animals. Plasma leptin, resistin, and adiponectin levels were measured using Bio-Rad multiplex kits (Hercules, Calif., USA). All samples were assayed in duplicate and analyzed using a Luminex 200 labmap system (Luminex, Austin, Tex., USA). Data analysis was performed using Bio-Plex Manager software version 4.1.1 (Bio-Rad, Hercules, Calif., USA).

[2] = test system: fatty acid synthase (FAS); experiment: FAS activity in epididymal white adipose tissue; settings: FIG. 5A, HFD+5% w/w in diet, 16 weeks
Description: as §1, with “Samples” for “Plasma leptin, resistin, and adiponectin levels”, “prepared” for “measured using Bio-Rad multiplex kits (Hercules, Calif., USA). All samples were assayed in duplicate”, “according to the method developed by Hulcher and Oleson. Specifically, the activity of fatty acid synthase (FAS) as” for “using”, “lipid regulating enzyme of epididymal white adipose tissue” for “Luminex 200 labmap system (Luminex, Austin, Tex., USA). Data analysis”, “measured by spectrophotometric assay according to the method described by Nepokroeff et al. Each sample was mixed with 100 μl of cytoplasmic fraction and the mixture was allowed to react at 30° C. for 2 min. A reduction in absorbance at 340 nm was measured. FAS activity units were expressed as nanomoles (nmol) of NADPH oxidized for 1 min per mg of cytoplasmic fraction. Fatty acid β-oxidation activity was measured by monitoring the reduction of NAD^+ to NADH in the presence of palmitoyl-CoA, as described by Lazarow. β-oxidation activity units were expressed as nanomoles (nmol) of NADH produced for 1 min per mg of mitochondrial protein.” for “performed using Bio-Plex Manager software version 4.1.1 (Bio-Rad, Hercules, Calif., USA).”

[3] = test system: CD36 (cluster of differentiation 36, 12491); experiment: Small intestine mRNA expression, real-time quantitative PCR: CD36; settings: FIG. 8, HFD+5% w/w in diet, 16 weeks
Description: as §1, with “animals.” for “animals. Plasma leptin, resistin, and adiponectin levels were measured using Bio-Rad multiplex kits (Hercules, Calif., USA). All samples were assayed in duplicate and analyzed using a Luminex 200 labmap system (Luminex, Austin, Tex., USA). Data analysis was performed using Bio-Plex Manager software version 4.1.1 (Bio-Rad, Hercules, Calif., USA).”
Samples were prepared and analyzed as previously described. Specifically, total RNA was synthesized into cDNA using a QuantiTect Reverse Transcription kit (QIAGEN Gmb1h, Hilden, Germany). RNA expression was quantified with real-time quantitative PCR using a QuantiTect SYBR Green PCR kit (QIAGEN Gmb1h, Hilden, Germany). Primers were designed to detect CD36 (cluster of differentiation 36, 12491), ApoB48 (apolipoprotein B 48, 238055), FATP4 (fatty acid transporter 4, 26569), ABCG5 (ATP-binding cassette sub-family G member5, 27409), and ABCG8 (ATP-binding cassette sub-family G member8, 67470). GAPDH was used as an internal transcription marker. The reaction was performed a total of 40 cycles (each consisting of 15 sec at 94° C., 30 sec at 58° C., 30 sec at 72° C., and 15 sec at 65° C.). Fluorescence signals were monitored every cycle and the resulting threshold cycles (Ct) were analyzed. mRNA expression in each experimental group was quantified using a CFX96 Real time system (Bio-rad, USA).

SMILES	leptin:adiponectin ratio (L:A ratio) [1]	plasma leptin level [1]	plasma resistin level [1]	FAS activity in adipose tissue [2]	mRNA expression level of CD36 in the small intestine [3]	mRNA expression level of CD36 in the small intestine ([3]; listed as D-psicose)
OC[C@@H](O)[C@@H](O)CO [ERY, erythritol]	increased significantly compared to those in the ND group	increased significantly compared to those in the ND group	increased significantly compared to those in the ND group	increased significantly compared to those in the ND group	significantly higher	
O=C(CO)[C@@H](O)[C@H](O)[C@H](O)CO [FRU, D-fructose]	increased significantly compared to those in the ND group	increased significantly compared to those in the ND group	increased significantly compared to those in the ND group	increased significantly compared to those in the ND group	significantly higher	
O=C[C@H](O)[C@@H](O)[C@H](O)[C@H](O)CO [GLU, D-glucose]	increased significantly compared to those in the ND group	increased significantly compared to those in the ND group	increased significantly compared to those in the ND group	increased significantly compared to those in the ND group	significantly higher	
O=C(CO)[C@H](O)[C@H](O)[C@H](O)CO [PSI, D-psicose]	reduced considerably to levels similar to those in the ND group	reduced considerably to levels similar to those in the ND group	reduced considerably to levels similar to those in the ND group	decreased significantly compared to those in other high-fat diet groups	significantly lower in the PSI group than those in other high-fat diet groups	reduces mRNA expression
